Laboratory results from patent US7435721B2, “Transport peptides such as C-terminal Erns peptide and analogues thereof” (Pepscan Systems B.V., priority 2000, dated 2008).
≈ marks a conversion by molar mass, not a printed value. Read-outs that look alike come from different tables or passages of the source. Residues, ends and D or L forms follow the SMILES beside them. *: point of attachment. Biotin = O=C1N[C@H]2[C@H](CS[C@H]2CCCCC(=O)*)N1

Columns and labels:
Format in all cases: cell-based
guinea pig erythrocytes = assay: Hemolytic assay, guinea pig erythrocytes; conditions: 1% v/v, one hour at 37° C.
Method: Hemolytic assay. Hemolytic activity of various peptide concentrations was determined by incubation with human, guinea pig or sheep erythrocyte suspensions (final erythrocyte concentration, 1% v/v) for one hour at 37° C. After cooling and centrifugation, the optical density of the supernatants were measured at 540 nm. Peptide concentrations causing 50% hemolysis (EC50) were derived from the dose-response curves.

[1] = tested on: Escherichia coli ATCC 25922; assay: Antimicrobial assay (MIC), E. coli; conditions: for MIC (minimal inhibitory concentration needed to inhibit bacterial growth): overnight at 37° C.
Method: Antimicrobial assay. Two bacterial strains (Escherichia coli ATCC 25922 and Enterococcus faecalis ATCC 29212) were inoculated on heart infusion agar with 5% sheep blood and incubated aerobically overnight at 37° C. From the pure cultures, suspensions were made in saline to a density of 0.5 McFarland. These suspensions were diluted ten-fold in Mueller Hinton II broth, resulting in a final inoculum of approximately 10^7 cfu/ml.
Standard 96-well microtiter trays were filled with 100 ill of two-fold dilutions of peptide in physiologic salt solution in each well, resulting in the following concentration range: 4000, 2000, 1000, 500, 250, 125, 62.25, 31.63, 15.82, 7.96 and 0 μg/ml. The trays in column 12 were filled with 200 μl MH II broth (negative control).
Columns 1-11 of the microtiter trays were filled with 100 μl of the final inoculum of the bacterial suspensions, thus diluting the concentrations of the peptide two fold, resulting in the following peptide concentration range in the wells: 2000, 1000, 500, 250, 125, 62.25, 31.63, 15.82, 7.96, 3.98 and 0 μg/ml. In rows B, C and D, 100 μl of the final inoculum of E. coli and, in rows E, F and G, 100 μl of the final inoculum of E. faecalis was pipetted. The final bacterial concentration was approximately 5×10^5 cfu/well. All trays were sealed and incubated overnight at 37° C. After incubation, the microtiter trays were inspected visually for bacterial growth and the absorbance of the cultures at 630 nm (A630) was determined with an ELISA-reader. […] The experiment was performed independently in triplicate. The test was repeated again in triplicate after two days with the final peptide concentration range in the wells: 5000, 2500, 1250, 625, 312.5, 156.25, 78.12, 39.06, 19.58, 9.79, 4.88, 2.44 and 1.22 μg/ml.

[2] = tested on: live cells in suspension or subconfluent monolayers

Row | Molecule | Hemolysis (peptide concentration causing 50% hemolysis) (guinea pig erythrocytes) [mg/mL] | MIC (minimal inhibitory concentration needed to inhibit bacterial growth) [1] [µg/mL] | also measured
1 | CC[C@H](C)[C@H](NC(=O)[C@H](CCCNC(=N)N)NC(=O)[C@H](CC(C)C)NC(=O)[C@H](CCC(N)=O)NC(=O)[C@H](CCCNC(=N)N)NC(=O)CNC(=O)[C@H](CC(C)C)NC(=O)[C@H](Cc1c[nH]c2ccccc12)NC(=O)[C@H](CO)NC(=O)CCCC[C@@H]1SC[C@@H]2NC(=O)N[C@@H]21)C(=O)N[C@@H](C)C(=O)NCC(=O)N[C@@H](CCCCN)C(=O)N[C@@H](CCCNC(=N)N)C(=O)N[C@@H](CC(C)C)C(=O)N[C@@H](CCC(=O)O)C(=O)NCC(=O)N[C@@H](CCCNC(=N)N)C(=O)N[C@@H](CO)C(=O)N[C@@H](CCCCN)C(N)=O [202-220] | >0.33 | 179 (≈ 73.5 µM) | 
2 | CC[C@H](C)[C@H](NC(=O)[C@H](CCCNC(=N)N)NC(=O)[C@H](CC(C)C)NC(=O)[C@H](CCC(N)=O)NC(=O)[C@H](CCCNC(=N)N)NC(=O)CNC(=O)[C@H](CC(C)C)NC(=O)[C@H](Cc1c[nH]c2ccccc12)NC(=O)[C@H](CO)NC(=O)[C@@H](NC(=O)[C@@H](NC(=O)[C@H](CCCNC(=N)N)NC(=O)[C@H](C)NC(=O)[C@H](C)NC(=O)CNC(=O)[C@H](CCC(N)=O)NC(=O)[C@H](CCCNC(=N)N)NC(=O)[C@H](C)NC(=O)[C@H](CC(N)=O)NC(=O)[C@H](CCC(=O)O)NC(=O)[C@@H](NC(=O)[C@@H](NC(=O)[C@H](CC(N)=O)NC(=O)[C@@H](NC(=O)[C@H](CCSC)NC(=O)CNC(=O)[C@H](CC(=O)O)NC(=O)CCCC[C@@H]1SC[C@@H]2NC(=O)N[C@@H]21)[C@@H](C)O)[C@@H](C)O)[C@@H](C)CC)C(C)C)[C@@H](C)O)C(=O)N[C@@H](C)C(=O)NCC(=O)N[C@@H](CCCCN)C(=O)N[C@@H](CCCNC(=N)N)C(=O)N[C@@H](CC(C)C)C(=O)N[C@@H](CCC(=O)O)C(=O)NCC(=O)N[C@@H](CCCNC(=N)N)C(=O)N[C@@H](CO)C(=O)N[C@@H](CCCCN)C(=O)N[C@H](C(=O)N[C@@H](Cc1c[nH]c2ccccc12)C(=O)N[C@@H](Cc1ccccc1)C(N)=O)[C@@H](C)O [184-223] | 0.15 | 46 (≈ 9.67 µM) | 
3 | CC[C@H](C)[C@H](NC(=O)[C@H](CCCNC(=N)N)NC(=O)[C@H](CC(C)C)NC(=O)[C@H](CCC(N)=O)NC(=O)[C@H](CCCNC(=N)N)NC(=O)CNC(=O)[C@H](CC(C)C)NC(=O)[C@H](Cc1c[nH]c2ccccc12)NC(=O)[C@H](CO)NC(=O)[C@@H](NC(=O)[C@@H](NC(=O)[C@H](CCCNC(=N)N)NC(=O)CCCC[C@@H]1SC[C@@H]2NC(=O)N[C@@H]21)C(C)C)[C@@H](C)O)C(=O)N[C@@H](C)C(=O)NCC(=O)N[C@@H](CCCCN)C(=O)N[C@@H](CCCNC(=N)N)C(=O)N[C@@H](CC(C)C)C(=O)N[C@@H](CCC(=O)O)C(=O)NCC(=O)N[C@@H](CCCNC(=N)N)C(=O)N[C@@H](CO)C(=O)N[C@@H](CCCCN)C(N)=O [199-220] | 0.18 | 23 (≈ 8.23 µM) | 
4 | CC[C@H](C)[C@H](NC(=O)[C@H](CC(C)C)NC(=O)[C@H](CCCCN)NC(=O)CNC(=O)[C@H](CC(N)=O)NC(=O)CNC(=O)CCCC[C@@H]1SC[C@@H]2NC(=O)N[C@@H]21)C(=O)N[C@@H](CCCCN)C(=O)NCC(=O)N[C@@H](CCCNC(=N)N)C(=O)N[C@H](C(=O)N1CCC[C@H]1C(=O)N[C@H](C(=O)N[C@@H](CCCCN)C(=O)N[C@@H](Cc1ccccc1)C(=O)NCC(=O)N[C@@H](CCCCN)C(=O)N[C@@H](C)C(=O)N[C@@H](CC(=O)O)C(=O)N[C@@H](CS)C(=O)N[C@@H](CC(=O)O)C(=O)N[C@@H](CCCNC(=N)N)C(=O)N1CCC[C@H]1C(=O)N1CCC[C@H]1C(=O)N[C@@H](CCCCN)C(=O)N[C@@H](Cc1c[nH]cn1)C(=O)N[C@@H](CO)C(=O)N[C@@H](CCC(N)=O)C(=O)N[C@@H](CC(N)=O)C(=O)NCC(=O)N[C@@H](CCSC)C(=O)NCC(=O)N[C@@H](CCCCN)C(N)=O)[C@@H](C)CC)[C@@H](C)O [L3 loop 59-88] (Biotin-GNGKLIKGRTPIKFGKADCDRPPKHSQNGMGK-NH2) |  | >500 | Translocation activity (in words) [2]: showed translocation activity; Concentration (translocation activity), mapping of restrictocin L3 loop ([2]; Table 10): 1.0 µM; Antibacterial activity (in words) [1]: no antibacterial activity
5 | CC[C@H](C)[C@H](NC(=O)[C@H](CCCNC(=N)N)NC(=O)[C@H](CC(C)C)NC(=O)[C@H](CCC(N)=O)NC(=O)[C@H](CCCNC(=N)N)NC(=O)CNC(=O)[C@H](CC(C)C)NC(=O)[C@H](Cc1c[nH]c2ccccc12)NC(=O)[C@H](CO)NC(=O)[C@@H](NC(=O)[C@@H](NC(=O)[C@H](CCCNC(=N)N)NC(=O)[C@H](C)NC(=O)[C@H](C)NC(=O)CNC(=O)[C@H](CCC(N)=O)NC(=O)[C@H](CCCNC(=N)N)NC(=O)[C@H](C)NC(=O)[C@H](CC(N)=O)NC(=O)[C@H](CCC(=O)O)NC(=O)[C@@H](NC(=O)[C@@H](NC(=O)[C@H](CC(N)=O)NC(=O)[C@@H](NC(=O)[C@H](CCSC)NC(=O)CNC(=O)[C@H](CC(=O)O)NC(=O)[C@H](CC(C)C)NC(=O)[C@H](CC(C)C)NC(=O)[C@H](Cc1ccc(O)cc1)NC(=O)[C@H](CC(C)C)NC(=O)[C@H](C)NC(=O)[C@@H](NC(=O)[C@H](CC(=O)O)NC(=O)[C@H](CCC(N)=O)NC(=O)[C@H](CC(C)C)NC(=O)[C@H](CC(C)C)NC(=O)[C@H](CO)NC(=O)CNC(=O)CCCC[C@@H]1SC[C@@H]2NC(=O)N[C@@H]21)[C@@H](C)O)[C@@H](C)O)[C@@H](C)O)[C@@H](C)CC)C(C)C)[C@@H](C)O)C(=O)N[C@@H](C)C(N)=O [172-211] | >0.33 | >500 | 
6 | CC[C@H](C)[C@H](NC(=O)[C@H](CCCNC(=N)N)NC(=O)[C@H](CC(C)C)NC(=O)[C@H](CCC(N)=O)NC(=O)[C@H](CCCNC(=N)N)NC(=O)CNC(=O)[C@H](CC(C)C)NC(=O)[C@H](Cc1c[nH]c2ccccc12)NC(=O)[C@H](CO)NC(=O)[C@@H](NC(=O)[C@@H](NC(=O)[C@H](CCCNC(=N)N)NC(=O)[C@H](C)NC(=O)[C@H](C)NC(=O)CNC(=O)[C@H](CCC(N)=O)NC(=O)[C@H](CCCNC(=N)N)NC(=O)[C@H](C)NC(=O)[C@H](CC(N)=O)NC(=O)[C@H](CCC(=O)O)NC(=O)CCCC[C@@H]1SC[C@@H]2NC(=O)N[C@@H]21)C(C)C)[C@@H](C)O)C(=O)N[C@@H](C)C(=O)NCC(=O)N[C@@H](CCCCN)C(=O)N[C@@H](CCCNC(=N)N)C(=O)N[C@@H](CC(C)C)C(=O)N[C@@H](CCC(=O)O)C(=O)NCC(=O)N[C@@H](CCCNC(=N)N)C(=O)N[C@@H](CO)C(=O)N[C@@H](CCCCN)C(=O)N[C@H](C(=O)N[C@@H](Cc1c[nH]c2ccccc12)C(=O)N[C@@H](Cc1ccccc1)C(N)=O)[C@@H](C)O [191-223] | 0.15 | 41 (≈ 10.2 µM) | 
7 | CC[C@H](C)[C@H](NC(=O)[C@H](CCCNC(=N)N)NC(=O)[C@H](CC(C)C)NC(=O)[C@H](CCC(N)=O)NC(=O)[C@H](CCCNC(=N)N)NC(=O)CNC(=O)[C@H](CC(C)C)NC(=O)[C@H](Cc1c[nH]c2ccccc12)NC(=O)[C@H](CO)NC(=O)[C@@H](NC(=O)[C@@H](NC(=O)[C@H](CCCNC(=N)N)NC(=O)[C@H](C)NC(=O)[C@H](C)NC(=O)CNC(=O)[C@H](CCC(N)=O)NC(=O)[C@H](CCCNC(=N)N)NC(=O)[C@H](C)NC(=O)[C@H](CC(N)=O)NC(=O)[C@H](CCC(=O)O)NC(=O)CCCC[C@@H]1SC[C@@H]2NC(=O)N[C@@H]21)C(C)C)[C@@H](C)O)C(=O)N[C@@H](C)C(=O)NCC(=O)N[C@@H](CCCCN)C(=O)N[C@@H](CCCNC(=N)N)C(=O)N[C@@H](CC(C)C)C(=O)N[C@@H](CCC(=O)O)C(=O)NCC(=O)N[C@@H](CCCNC(=N)N)C(=O)N[C@@H](CO)C(=O)N[C@@H](CCCCN)C(N)=O [191-220] | 0.31 | 47 (≈ 13.1 µM) | 
8 | Biotin-NRTRRNRRRVR-NH2 [Flockhouse virus peptide] |  |  | Concentration (translocation activity of transport peptides) [2]: 0.03 µM
9 | Bioton-KRIPNKKPGKKTTTKPTKKPTIKTTKK-NH2 [MDP-04] |  |  | Concentration (translocation activity of transport peptides) ([2]; Table 11): 0.3 µM
10 | Biotin-KTIPSNKPKKK-NH2 [MDS-35] |  |  | Concentration (translocation activity of transport peptides) [2]: 0.1 µM
11 | Biotin-KCPSRRPKR-NH2 [Alpha virus E3] |  |  | Concentration (translocation activity of transport peptides) [2]: 3.0 µM
